From publication PMC9212491 (Antiviral Research, 2022)

Tests used:
RIPK2 = details: ref Asquith et al., 2019a, 2019b; cited from earlier work
ADCK3 = details: ref Asquith et al., 2019a, 2019b; cited from earlier work
rSARS-CoV-2/Nluc = experiment: microbe, parasite or virus in culture; assay type: cell-based, SARS-CoV-2; details: for EC50: Severe acute respiratory syndrome coronavirus 2, Calu-3, read-out: EC50, SARS-CoV-2 infection, Calu-3 cells
[1] = alamarBlue viability, infected Vero E6 cells; assay type: cell-based; details: African green monkey, 24 hpi
NLK = details: ref Asquith et al., 2019a, 2019b; cited from earlier work
[2] = alamarBlue viability, infected Calu-3 cells; assay type: cell-based; details: human
JAK2 = details: ref Stebbing et al.,2021; Klaeger et al.,2017; cited from earlier work
TYK2 = details: ref Stebbing et al.,2021; Klaeger et al.,2017; cited from earlier work
BIKE = BIKE (Homo sapiens, UniProt Q9NSY1); experiment: In vitro binding, dissociation constant
AAK1 = AAK1 (Homo sapiens, UniProt Q2M2I8); experiment: In vitro binding, dissociation constant
SLK = details: ref Asquith et al., 2019a, 2019b; Davis et al.,2011; cited from earlier work
EGFR = details: ref Asquith et al., 2019a, 2019b; Davis et al.,2011; cited from earlier work
YSK4 = details: ref Asquith et al., 2019a, 2019b; Davis et al.,2011; cited from earlier work
STK10 = details: ref Asquith et al., 2019a, 2019b; Davis et al.,2011; cited from earlier work
PDGFRβ = details: ref Davis et al.,2011; cited from earlier work

BIKE, sequence (Q9NSY1 whole entry): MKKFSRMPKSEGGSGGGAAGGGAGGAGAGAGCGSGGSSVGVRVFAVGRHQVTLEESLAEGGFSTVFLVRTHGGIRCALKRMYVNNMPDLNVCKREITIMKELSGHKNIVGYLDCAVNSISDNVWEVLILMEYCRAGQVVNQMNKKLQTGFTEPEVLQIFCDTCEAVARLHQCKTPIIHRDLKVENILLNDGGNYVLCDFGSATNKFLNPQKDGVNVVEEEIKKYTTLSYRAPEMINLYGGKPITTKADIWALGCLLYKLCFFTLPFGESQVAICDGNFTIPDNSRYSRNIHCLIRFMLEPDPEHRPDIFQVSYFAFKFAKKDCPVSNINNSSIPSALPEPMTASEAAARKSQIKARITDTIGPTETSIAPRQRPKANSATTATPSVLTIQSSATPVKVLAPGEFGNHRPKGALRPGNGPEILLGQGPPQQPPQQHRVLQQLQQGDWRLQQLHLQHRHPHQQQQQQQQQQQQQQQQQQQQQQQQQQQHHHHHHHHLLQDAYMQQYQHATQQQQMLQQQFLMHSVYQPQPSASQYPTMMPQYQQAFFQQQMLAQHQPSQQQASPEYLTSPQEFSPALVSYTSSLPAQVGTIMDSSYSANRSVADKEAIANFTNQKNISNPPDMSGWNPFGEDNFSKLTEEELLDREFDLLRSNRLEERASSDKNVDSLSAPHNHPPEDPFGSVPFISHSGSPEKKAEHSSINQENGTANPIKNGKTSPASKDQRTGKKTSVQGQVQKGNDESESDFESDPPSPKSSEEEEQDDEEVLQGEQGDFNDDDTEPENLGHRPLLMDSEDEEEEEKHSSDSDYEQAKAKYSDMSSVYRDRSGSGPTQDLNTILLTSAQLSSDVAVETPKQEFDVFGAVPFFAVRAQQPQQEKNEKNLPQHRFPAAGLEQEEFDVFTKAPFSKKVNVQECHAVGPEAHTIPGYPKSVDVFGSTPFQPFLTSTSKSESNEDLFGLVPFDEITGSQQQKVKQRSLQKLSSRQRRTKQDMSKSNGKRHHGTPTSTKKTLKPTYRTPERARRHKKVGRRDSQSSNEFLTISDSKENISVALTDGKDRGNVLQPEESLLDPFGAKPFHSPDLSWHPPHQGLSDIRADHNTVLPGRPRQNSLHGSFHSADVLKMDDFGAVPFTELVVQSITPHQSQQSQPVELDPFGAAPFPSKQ
AAK1, sequence (Q2M2I8 whole entry): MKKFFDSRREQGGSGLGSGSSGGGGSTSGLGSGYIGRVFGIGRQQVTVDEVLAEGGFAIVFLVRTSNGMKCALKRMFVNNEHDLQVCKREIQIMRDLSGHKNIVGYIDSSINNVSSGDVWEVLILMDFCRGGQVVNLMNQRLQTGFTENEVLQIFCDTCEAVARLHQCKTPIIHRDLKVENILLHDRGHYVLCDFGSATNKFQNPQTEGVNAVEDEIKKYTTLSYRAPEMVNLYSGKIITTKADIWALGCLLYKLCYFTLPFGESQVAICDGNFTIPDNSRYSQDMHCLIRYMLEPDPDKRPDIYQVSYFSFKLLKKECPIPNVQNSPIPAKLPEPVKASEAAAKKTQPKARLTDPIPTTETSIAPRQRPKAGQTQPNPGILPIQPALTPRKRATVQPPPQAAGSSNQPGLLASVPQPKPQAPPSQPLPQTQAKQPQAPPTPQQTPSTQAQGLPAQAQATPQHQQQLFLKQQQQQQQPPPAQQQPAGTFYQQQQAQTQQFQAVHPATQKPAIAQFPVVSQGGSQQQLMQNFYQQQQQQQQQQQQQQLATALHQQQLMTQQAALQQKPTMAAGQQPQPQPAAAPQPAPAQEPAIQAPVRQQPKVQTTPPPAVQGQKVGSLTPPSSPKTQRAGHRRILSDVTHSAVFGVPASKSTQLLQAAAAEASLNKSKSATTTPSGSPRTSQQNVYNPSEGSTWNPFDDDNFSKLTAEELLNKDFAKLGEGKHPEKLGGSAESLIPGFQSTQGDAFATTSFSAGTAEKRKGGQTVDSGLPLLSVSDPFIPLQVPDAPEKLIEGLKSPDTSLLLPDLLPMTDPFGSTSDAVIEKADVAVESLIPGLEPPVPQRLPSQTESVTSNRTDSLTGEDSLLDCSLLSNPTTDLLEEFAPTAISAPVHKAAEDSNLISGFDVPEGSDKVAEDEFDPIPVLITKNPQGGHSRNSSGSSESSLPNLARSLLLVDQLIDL

COc1cc(Nc2ccnc3ccc(Br)cc23)cc(OC)c1OC [SGC-GAK-1]
RIPK2 (Other targets, measure not stated) (RIPK2): 110 nM | ADCK3 (Other targets, measure not stated) (ADCK3): 190 nM | EC50 (rSARS-CoV-2/Nluc): 2.3 µM | CC50 at 24 h post infection [1]: > 20 µM | NLK (Other targets, measure not stated) (NLK): 520 nM | CC50 at 24 h post infection [2]: > 20 µM

CCS(=O)(=O)N1CC(CC#N)(n2cc(-c3ncnc4[nH]ccc34)cn2)C1 [Baricitinib, baricitinib]
antiviral activity in Calu-3 cells (rSARS-CoV-2/Nluc): largely no antiviral activity | JAK2 (Other targets, measure not stated) (JAK2): 5.7 nM | TYK2 (Other targets, measure not stated) (TYK2): 53 nM

C=CC(=O)Nc1cccc(-c2snc3cc(-c4ccc(N)c(OC)c4)cnc23)c1 [RMC-242, N-(3-(6-(4-amino-3-methoxyphenyl)isothiazolo [4,3-b]pyridin-3-yl)phenyl) acrylamide]
Kd (BIKE): > 15 µM | EC50 (rSARS-CoV-2/Nluc): 1.6 µM | CC50 at 24 h post infection [1]: 16 µM | CC50 at 24 h post infection [2]: > 20 µM | Kd (AAK1): 4.1 µM

C#Cc1cccc(Nc2ncnc3cc(OCCOC)c(OCCOC)cc23)c1 [Erlotinib, erlotinib]
SLK (Other targets, measure not stated) (SLK): 26 nM | ErbB1 (Other targets, measure not stated) (EGFR): 0.7 nM | EC50 (rSARS-CoV-2/Nluc): > 20 µM | YSK4 (Other targets, measure not stated) (YSK4): 25 nM | STK10 (Other targets, measure not stated) (STK10): 19 nM

CCN(CC)CCNC(=O)c1c(C)[nH]c(/C=C2\C(=O)Nc3ccc(F)cc32)c1C [Sunitinib, sunitinib]
EC50 (rSARS-CoV-2/Nluc): 2.9 µM | CC50 at 24 h post infection [1]: 12.2 µM | PDGFRβ (Other targets, measure not stated) (PDGFRβ): 2 nM | CC50 at 24 h post infection [2]: > 20 µM
